Test results taken from patent US8580814B2, “Methods of using (+)-1,4-dihydro-7-[(3S,4S)-3-methoxy-4-(methylamino)-1-pyrrolidinyl]-4- oxo-1-(2-thiazolyl)-1,8-naphthyridine-3-carboxylic acid for treatment of cancer” (priority 2006, dated 2013).
Marks after values point to notes of the source that are not given here.

Assays:
[1] = system: M059J (DNAPKcs(−/−)) cells; test: Repair of DNA damage (gH2AX foci) in the absence of DNA-PK; type: cell-based; set-up: dose or concentration left out as unconfirmed; details: M059J vs M059K (wt), washout, 16 hours recovery
Description: Compound was then removed and cells were allowed to recover for 16 hours. Cells were analyzed for gH2AX foci before and after drug washout.

[2] = system: advanced or refractory acute leukemias; test: Peripheral blasts in patients with advanced or refractory acute leukemias; type: in vivo, human; details: six patients distributed across all dosing groups of Table 15, following cycle 1
Description: SNS-595 was administered to patients with advanced or refractory acute leukemias as a slow IV push. Diagnoses included AML (19 patients) and ALL (2 patients). All patients had disease refractory to or relapsed from prior therapy (median 3 prior regimens (range 1-6)). A total of 21 patients (9 female and 12 male; median age=64 yrs, range 21-80) were treated in five cohorts using two schedules. In the first schedule (A), a weekly dose of SNS-595 was administered for three weeks followed by 7 days off (qwk×3). In the second schedule (B), a dose of SNS-595 was administered twice a week for two weeks (biwk×2). The cycle duration, including days off, was 28 days for both schedules. […] Additional cycles were permitted if patients achieved stable disease or better. The starting dose was 18 mg/m^2 on schedule A and 9 mg/m^2 on schedule B, and dosage was escalated by cohort. Cohorts of 3-6 patients were accrued to doses using a modified Fibonacci sequence.

[3] = Solubility in acidic compositions; type: physicochemical; details: Acidic compositions (<pH 4)
Description: An illustrative example of a suitable composition comprises: 10 mg SNS-595 per mL of aqueous solution of 4.5% sorbitol that is adjusted to pH 2.5 with methanesulfonic acid. One protocol for making such a solution includes the following for making a 100 mg/10 mL presentation: 100 mg of SNS-595 and 450 mg D-sorbitol are added to distilled water; the volume is brought up to a volume of 10 mL; and the pH of the resulting solution is adjusted to 2.5 with methanesulfonic acid. The resulting composition is also suitable for lyophilization. The lyophilized form is then reconstituted with sterile water to the appropriate concentration prior to use.

[4] = Safety (adverse events, hematologic effects, DLT, MTD) in patients with advanced solid tumors; type: in vivo
Description: (§1) SNS-595 was administered to patients with advanced solid cancers as an IV infusion over 10 minutes on 2 schedules. In the first schedule (A), a weekly dose of SNS-595 was administered for three weeks followed by at least 7 days off (qwk×3). In the second schedule (B), a dose of SNS-595 was administered once every three weeks (q3wk).
(§2) In both schedules, the starting dose of SNS-595 was 3 mg/m^2, and doses were escalated by sequential cohorts of 3. The doses were doubled until the first related adverse event at or above Grade 2 or until the first abnormal lab value. The doses were then escalated by a modified Fibonacci schema.
In the description herein, the term “maximum tolerated dose” or “MTD” refers to the dose level below a dose of SNS-595 where ≧2 of 6 patients experienced dose limiting toxicity (DLT). The term, “heavily pretreated” or “HP” patient refers to a patient who has previously received >6 courses of an alkylating agent, chemotherapy or >2 courses of platinum, mitomycin-C or any nitrosourea, or XRT to >25% of bone. […] (See, Tolcher et al, JCO 2001; 19:2937-2947).
As used herein, dose limiting toxicity (DLT) refers to absolute neutrophil count (ANC) ≦500 for ≧7 days or febrile neutropenia or platelet nadir <25000 or bleeding or non-hematologic adverse events (AE) ≧Grade 3 (as described in Common Terminology Criteria for Adverse Events Version 3.0 (CTCAE v3.0)), wherein adverse events required >14 days dose delay.

clinical = details: human, in vivo
Description: as §1, §2
For patients dosed according to schedule A, PK samples were collected on treatment Days 1 and 15 and were assayed using noncompartmental analysis. Plasma SNS-595 concentrations were determined using a validated LC-MS/MS assay. […] FIG. 1 depicts the plasma concentrations of SNS-595 over time among the various patient cohorts.
For patients dosed according to schedule B, pharmacokinetic parameters were evaluated in 36 patients (21 heavily pretreated and 15 minimally pretreated) after a single dose of 3 to 75 mg/m^2.
In study A, pharmacokinetics were assessed on Days 1 and 15 (after the first and third doses).

SMILES: CN[C@H]1CN(c2ccc3c(=O)c(C(=O)O)cn(-c4nccs4)c3n2)C[C@@H]1OC [SNS-595, (+)-1,4-dihydro-7-[(3S,4S)-3-methoxy-4-(methylamino)-1-pyrrolidinyl]-4-oxo-1-(2-thiazolyl)-1,8-naphthyridine-3-carboxylic acid]
- repair of induced DNA damage (gH2AX foci) in the absence of DNA-PK [1]: not effectively repaired
- reductions in peripheral blasts [2]: greater than 50%
- solubility [3]: increased solubility
- dose limiting toxicity (DLT) ([4]; human, in vivo): neutropenia
- dose-limiting toxicity (DLT) ([4]; human, in vivo): neutropenia
- edema peripheral, no. patients with Grade ≧ 3/no. patients with any Grade ([4]; human, in vivo): 0/4*
- grade 4 thrombocytopenia ([4]; human, in vivo): two patients
- non-hematologic toxicities ([4]; human, in vivo): mostly grade 1/2
- pain in extremity, no. patients with Grade ≧ 3/no. patients with any Grade ([4]; human, in vivo): 0/5
- SAE possibly related to study drug: Sepsis, CTCAE v3.0 Grade ([4]; q3wk, 1 patient): Grade 3
- MTD ([4]; study A (qwk×3)): 15 mg/m^2
- MTD ([4]; study B (q3wk), heavily pretreated (HP) patients): 48 mg/m^2
- MTD ([4]; study B (q3wk), minimally pretreated (MP) patients): 60 mg/m^2
- AUC (area under curve) versus dose (clinical): increased proportionally with dose
- CL, averaged (clinical): 2 L/hr/m^2
- CL, volume of distribution and T1/2 across doses (clinical): remained unchanged
- Clearance (CL) (clinical): 2.2 L/hr/m2
- Clearance (CL), range (clinical): 1.0-3.8 L/hr/m^2
- Exposure (clinical): 1600 to 15000 ng·h/mL
- T ½, Average (clinical): 21.3 ± 5.3 h
- T ½, Range (clinical): 13 to 56 h
- Vss, averaged (clinical): 53 L/m^2
- clearance (CL), averaged (clinical): 2 L/hr/m^2
- drug dependent alterations in pharmacokinetic parameters (clinical): No evidence of drug dependent alterations
- exposure (clinical): 1100 to 46000 ng·h/mL
- volume of distribution (Vss), averaged (clinical): 48 L/m^2
- AUCinf (clinical; 3 mg/m2): 1140 ± 260 ng·h/mL
- T ½ (clinical; 3 mg/m2): 16.4 ± 4.8 h
- AUC(0-inf) (clinical; 3 mg/m2, AUCinf): 1710 ± 200 ng·h/mL
- half-life (clinical; 3 mg/m2, T ½): 23.3 ± 7.2 h
- AUCinf (clinical; 6 mg/m2): 3040 ± 320 ng·h/mL
- Cmax (clinical; 6 mg/m2): 347 ± 220 ng/mL
- T ½ (clinical; 6 mg/m2): 22.2 ± 1.9 h
- AUC(0-inf) (clinical; 6 mg/m2, AUCinf): 2090 ± 530 ng·h/mL
- Cmax (clinical; 6 mg/m2, Cmax): 531 ± 280 ng/mL
- half-life (clinical; 6 mg/m2, T ½): 13.5 ± 2.2 h
- AUCinf (clinical; 12 mg/m2): 6320 ± 220 ng·h/mL
- Cmax (clinical; 12 mg/m2): 2250 ± 1070 ng/mL
- T ½ (clinical; 12 mg/m2): 18.0 ± 4.1 h
- AUC(0-inf) (clinical; 12 mg/m2, AUCinf): 6810 ± 1680 ng·h/mL
- Cmax (clinical; 12 mg/m2, Cmax): 1840 ± 2700 ng/mL
- half-life (clinical; 12 mg/m2, T ½): 19.9 ± 5.3 h
- T ½ (clinical; 15 mg/m2): 26.4 ± 15.2 h
- Vssobs (clinical; 15 mg/m2): 43.8 ± 7.90 L/m^2
- AUC(0-inf) (clinical; 15 mg/m2, AUCinf): 10800 ± 4700 ng·h/mL
- Cmax (clinical; 15 mg/m2, Cmax): 865 ± 318 ng/mL
- Vssobs (clinical; 18 mg/m2): 47.19 ± 8.06 L/m^2
- AUC(0-inf) (clinical; 18 mg/m2, AUCinf): 8500 ± 2860 ng·h/mL
- Cmax (clinical; 18 mg/m2, Cmax): 1690 ± 830 ng/mL
- half-life (clinical; 18 mg/m2, T ½): 15.8 ± 4.2 h
- AUCinf (clinical; 24 mg/m2): 12630 ± 860 ng·h/mL
- T ½ (clinical; 24 mg/m2): 15.7 ± 3.2 h
- AUC(0-inf) (clinical; 24 mg/m2, AUCinf): 15200 ng·h/mL
- half-life (clinical; 24 mg/m2, T ½): 24.2 h
- T ½ (clinical; 36 mg/m2): 22.5 ± 4.2 h
- Vssobs (clinical; 36 mg/m2): 61.4 ± 12.8 L/m^2
- AUC(0-inf) (clinical; 36 mg/m2, AUCinf): 18000 ± 730 ng·h/mL
- Cmax (clinical; 36 mg/m2, Cmax): 3380 ± 1920 ng/mL
- T ½ (clinical; 48 mg/m2): 26.4 ± 13.1 h
- Vssobs (clinical; 48 mg/m2): 58.8 ± 14.5 L/m^2
- AUC(0-inf) (clinical; 48 mg/m2, AUCinf): 29400 ± 11300 ng·h/mL
- Cmax (clinical; 48 mg/m2, Cmax): 3080 ± 1920 ng/mL
- T ½ (clinical; 60 mg/m2): 25.0 ± 17.9 h
- Vssobs (clinical; 60 mg/m2): 48.0 ± 7.3 L/m^2
- AUC(0-inf) (clinical; 60 mg/m2, AUCinf): 40700 ± 23700 ng·h/mL
- Cmax (clinical; 60 mg/m2, Cmax): 3860 ± 1680 ng/mL
- T ½ (clinical; 75 mg/m2): 25.0 ± 4.9 h
- Vssobs (clinical; 75 mg/m2): 56.3 ± 9.4 L/m^2
- AUC(0-inf) (clinical; 75 mg/m2, AUCinf): 46100 ± 6120 ng·h/mL
- Cmax (clinical; 75 mg/m2, Cmax): 5050 ± 1720 ng/mL
- half-life (clinical; T1/2, averaged): 19 h
- half-life (clinical; T1/2 ± SD): 22 ± 11 h
- half-life (clinical; T ½, Average): 18.5 ± 4.6 h
- half-life (clinical; T ½, Range): 10 to 33 h
- half-life (clinical; terminal half-life): ~19 h
- half-life (clinical; terminal half-life (T1/2)): ~21 h
- half-life (clinical; terminal half-life (T1/2), range): 13 to 49 h
